# US20050058636A1, “Medicament against thrombotic diseases” (priority 2002, published 2005)
# Experiments:
# [1] = target: T1, binding of PAI-1 to vitronectin in PAI-1-depleted extracellular matrix of endothelial cells (Homo sapiens, UniProt P04004); test: Binding of PAI-1 to endothelial cell matrix; conditions: 2 μg/ml PAI-1; competitors each 500 nM; 10 μM ZnCl2 (FIG. 1)
# T1 construct: The extracellular matrix of human umbilical vein endothelial cells was prepared according to standard procedures; endogenous in cells; host or cells: extracellular matrix of human umbilical vein endothelial cells, glycine-treated
# T1 sequence (P04004 20-478): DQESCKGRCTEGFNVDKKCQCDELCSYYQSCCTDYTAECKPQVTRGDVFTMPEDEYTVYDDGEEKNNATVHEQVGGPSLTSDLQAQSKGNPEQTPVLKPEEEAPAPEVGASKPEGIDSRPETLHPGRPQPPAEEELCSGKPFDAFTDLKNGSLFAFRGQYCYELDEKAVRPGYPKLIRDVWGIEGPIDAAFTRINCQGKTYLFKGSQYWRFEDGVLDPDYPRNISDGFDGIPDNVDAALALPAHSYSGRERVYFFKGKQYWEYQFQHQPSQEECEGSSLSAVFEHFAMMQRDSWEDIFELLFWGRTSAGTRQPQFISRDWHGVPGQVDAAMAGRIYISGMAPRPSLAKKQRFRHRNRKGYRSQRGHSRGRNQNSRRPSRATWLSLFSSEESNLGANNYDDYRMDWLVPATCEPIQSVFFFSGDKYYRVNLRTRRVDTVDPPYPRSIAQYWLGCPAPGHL
# Method: The extracellular matrix of human umbilical vein endothelial cells was prepared according to standard procedures. PAI-1-depleted extracellular matrix was obtained by subsequent incubation with glycine (0.1 M, pH 2.3) for 2 h at 25° C. Wells were washed and blocked with phosphate buffered saline containing 3% (wt/vol) bovine serum albumin before proceeding with binding assays. Binding of PAI-1 (2 μg/ml) to the extracellular matrix was performed in a final volume of 50 μl Tris-buffered saline containing 0.1% Tween-20, 0.3% (wt/vol) bovine serum albumin for 2 h at 22° C. in the absence or presence of […] and different kininogen forms. Following the incubation period and a washing step, bound PAI-1 was quantitated by anti-human PAI-1 monoclonal antibody 12A4, followed by addition of 1:1000 diluted peroxidase-conjugated goat anti-mouse immunoglobulins. The conversion of the substrate 2,2,-azino-di(3-ethyl) benz-thiazoline sulphate was monitored at 405 nm in a Thermomax microtiter plate reader. […]
# FIG. 1 The binding of 2 μg/ml PAI-1 to PAI-1-depleted (2 h glycine preincubation) extracellular matrix of cultured endothelial cells was tested in the absence (−)or presence of HK, HKa, GST-domain 5 (D5), the peptides HK483 and HK486 (each 500 nM) in a buffer containing 10 μM ZnCl2. Specific binding of PAI-1 is presented as absorbance at 405 nm.
# PAI-1 = test: Urokinase-mediated clot lysis in the presence of PAI-1; assay type: biochemical; conditions: not shown
# [2] = target: T2, platelet αIIbβ3-integrin with vitronectin (Homo sapiens, UniProt P04004); test: Binding of vitronectin to αIIbβ3-integrin; conditions: vitronectin 2 μg/ml, immobilized αIIbβ3-integrin 5 μg/ml, 10 μM ZnCl2 (FIG. 3)
# T2 sequence (P04004 20-478): T1 sequence (P04004 20-478)
# Method: Microtiter plates were coated with 5 μg/ml αIIbβ3-integrin in Tris-buffered saline, pH 7.4, containing 1 mM CaCl2, 1 mM MgCl2 overnight at 4° C. and then blocked with 3% (w/v) bovine serum albumin. Binding of multimeric vitronectin (2 μg/ml) was performed in a final volume of 50 μl Tris-buffered saline containing 0.1% Tween-20, 0.3% (w/v) bovine serum albumin, 1 mM CaCl2 and 1 mM MgCl2 for 2 h at 22° C. in the absence or presence of 10 μM ZnCl2 and different kininogen forms. After the incubation period, monoclonal anti-vitronectin antibody VN7 at a concentration of 125 ng/ml was added, followed by addition of 1:1000 diluted peroxidase-conjugated goat anti-mouse immunoglobulins, respectively. Binding was quantitated as described above.
# FIG. 3 The binding of vitronectin (2 μg/ml) to immobilized αIIbβ3-integrin (5 μg/ml) in the absence or presence of increasing concentrations of PAI-1 (filled squares), HKa (filled circles) or GST-domain 5 (open circles) in a buffer containing 10 μM ZnCl2 was carried out. Specific binding is presented as absorbance at 405 nm.
# platelets = test: Platelet adhesion onto vitronectin-coated plates; assay type: cell-based; conditions: competitors each 250 nM (FIG. 4)
# Method: Multiwell plates were coated with 5 μg/ml multimeric vitronectin (dissolved in bicarbonate buffer, pH 9.6) and blocked with 3% (wt/vol) bovine serum albumin for 16 h at 4° C. Platelets stained with calcein acetoxymethyl ester (calcein-AM, 2.5 μM) (15 min at 37° C. in the dark) at a density of 5×10^6 cells suspended in 50 μl HEPES-Tyrode buffer containing 4 mM MgCl2 were added together with the respective competitors and incubated for 30 min at 37° C. After three washes with phosphate buffered saline, bound platelets were lysed with 100 μl of lysis buffer (150 mM NaCl, 10 mM Tris-CH1, pH 7.5, 5 mM EDTA, 1% (wt/vol) NP-40, 1 mM phenyl-methylsulfonyl fluoride, 20 μg/ml soybean trypsin inhibitor) and quantified in a fluorescent plate reader (excitation filter 492 nm, emission filter 535 nm).
# FIG. 4. The adhesion of platelets to vitronectin in the absence (−) or presence of HK, HKa, GST-domain 5(D5), or the peptides HK483 and HK486 (each 250 nM) was carried out. Cell adhesion is presented as % of control.
# platelet-rich plasma = test: Aggregation of platelet-rich plasma; assay type: cell-based; conditions: Adenosin-diphosphate (5 μM)-induced; competitors each 1000 nM (FIG. 5)
# Method: Platelet-rich plasma from fresh whole blood in sodium citrate was prepared by centrifugation of anticoagulated whole blood at 150 g for 20 min. After incubation of 0.45 ml of platelet rich plasma with different kininogen forms as indicated in the figure legends, and addition of 5 μl of […] at a final concentration of 5 μM, platelet aggregation was induced. Aggregation was quantitated by following the change in light transmission in a standardized aggregometer.
# FIG. 5 Adenosin-diphosphate (5 μM)-induced aggregation of platelet-rich plasma was performed in the absence (−) or presence of GST-domain 5 (D5), or the peptides HK483 and HK486 (each 1000 nM). Platelet aggregation is presented as % of control.
substance,measurement,setting,value
"His-483-Gly-497 (HGHGKHKNKGKKNGK; UniProt P01042 501-515, looked up, fragment) [HK483, peptide derived from the carboxy-terminus of the domain 5 of HK]",binding of PAI-1 to vitronectin in PAI-1-depleted (glycine-treated) extracellular matrix of endothelial cells,[1],inhibited
same,"urokinase-mediated clot lysis, which is inhibited in the presence of PAI-1",PAI-1,enhance
same,interaction of platelet αIIbβ3-integrin with vitronectin,[2],block
same,αIIbβ3-integrin-mediated platelet adhesion to vitronectin,platelets,block
same,aggregation of platelet-rich plasma,platelet-rich plasma,inhibit
